We go through 17 molecules from article PMC10410819, “Potential antihypertensive activity of novel peptides from green basil leaves” (BMC Complementary Medicine and Therapies, 2023).

Residues, ends and D or L forms follow the SMILES beside them. No end group written: not given here.

For one data set, the target named is T1, ACE (Homo sapiens, UniProt P12821).
T1 construct: purchased Dojindo Molecular Technology Inc., Kumamoto, Japan
The experiment in a line: ACE inhibitory activity assay kit. The class given is biochemical. The conditions noted are these: synthetic peptides; captopril positive control; read-out: IC50 ACE inhibition. The protocol:
ACE inhibitory activity assay kit (Dojindo Molecular Technology Inc., Kumamoto, Japan) was used for the measurement of ACE inhibition in proteins derived from basil leaves before and after digestion according to the company manual. Briefly, 10 µl of each sample, substrate buffer, and enzyme mixture were mixed and incubated in 96-well plate at 37 °C for 1 h before measuring ACE inhibition at 450 nm of absorption (A). The ACE inhibitory activity was calculated and calculated as follows: inhibitory activity (%) = [(Awithout sample − Awith sample)/(Awithout sample − Ablank)] × 100.

The test system of data set [1] is L-NAME-treated male Wistar rats. The experiment in a line: Serum lipid profile, glucose, kidney and liver function and ORAC in L-NAME-treated rats. The class given is in vivo, rat. The note with it: mean, 3 weeks oral gavage, lisinopril 10 mg/kg BW/day, peptides 30 mg/kg BW/day, n = 5. The method, then: (§1) After 1 week of acclimation, 25 male Wistar rats were separated randomly into two groups of control rat (NC; n = 5) with distilled water and L-NAME-treated rat (n = 20). At this step, distilled water was orally gavaged to NC rat at 1 mL/100 g BW. L-NAME at a final concentration of 40 mg/kg BW in 1 mL distilled water was orally gavage to induce hypertension in rat at a dose of 40 mg/kg BW for 3 weeks. Thereafter, L-NAME treated rats were randomly classified into the following four groups: L-NAME untreated rat (HT; n = 5); L-NAME + lisinopril rat (HTD; n = 5); L-NAME + peptide 1 at 30 mg/kg rat (HTP1; n = 5); and L-NAME + peptide 2 at 30 mg/kg rat (HTP2; n = 5); for the remaining 3 weeks. NC (n = 5) was still orally gavaged with distilled water. The peptides were diluted in distilled water to obtain a final concentration of 30 mg/1 mL and immediately gavaged to rat at a dose of 30 mg/kg BW/day). Lisinopril was diluted in distilled water to obtain a final concentration of 10 mg/1 mL and immediately orally gavaged to rat at a dose of 10 mg/kg BW/day. At the end of the experiment, each rat was fasted for approximately 12–16 h and euthanized with CO2 inhalation. […] The separated serum was collected and preserved at − 80 °C until further analysis. Then, the liver, heart, spleen, and kidneys were collected, trimmed, washed with normal saline, wiped with filter paper, and weighed.
One thousand microlite of serum was used for measuring the lipid profiles, including total cholesterol, triglyceride (TG), low-density lipoprotein (LDL)-cholesterol (C), high-density lipoprotein (HDL)-C, glucose levels, kidney (blood urea nitrogen and creatinine concentrations) and liver function [alanine aminotransaminase (ALT), aspartate transaminase (AST), and alkaline phosphatase ([…])] parameters using the Cobas 6800/8800 systems (Roche Group, Switzerland). ORAC in rat serum was measured with a fluorescent microplate reader at Ex/Em = 480/520 nm, as previously mentioned.

The test system is the same in data set [2]. The data set is described as follows: Organ weights of L-NAME-treated rats. It is filed as in vivo, rat. The note with it: vs NC group; after 3 weeks treatment. The method, then: as §1
In data set [3] the target is Angiotensin-converting enzyme (UniProt P12821).
Angiotensin-converting enzyme, sequence (P12821 30-1256): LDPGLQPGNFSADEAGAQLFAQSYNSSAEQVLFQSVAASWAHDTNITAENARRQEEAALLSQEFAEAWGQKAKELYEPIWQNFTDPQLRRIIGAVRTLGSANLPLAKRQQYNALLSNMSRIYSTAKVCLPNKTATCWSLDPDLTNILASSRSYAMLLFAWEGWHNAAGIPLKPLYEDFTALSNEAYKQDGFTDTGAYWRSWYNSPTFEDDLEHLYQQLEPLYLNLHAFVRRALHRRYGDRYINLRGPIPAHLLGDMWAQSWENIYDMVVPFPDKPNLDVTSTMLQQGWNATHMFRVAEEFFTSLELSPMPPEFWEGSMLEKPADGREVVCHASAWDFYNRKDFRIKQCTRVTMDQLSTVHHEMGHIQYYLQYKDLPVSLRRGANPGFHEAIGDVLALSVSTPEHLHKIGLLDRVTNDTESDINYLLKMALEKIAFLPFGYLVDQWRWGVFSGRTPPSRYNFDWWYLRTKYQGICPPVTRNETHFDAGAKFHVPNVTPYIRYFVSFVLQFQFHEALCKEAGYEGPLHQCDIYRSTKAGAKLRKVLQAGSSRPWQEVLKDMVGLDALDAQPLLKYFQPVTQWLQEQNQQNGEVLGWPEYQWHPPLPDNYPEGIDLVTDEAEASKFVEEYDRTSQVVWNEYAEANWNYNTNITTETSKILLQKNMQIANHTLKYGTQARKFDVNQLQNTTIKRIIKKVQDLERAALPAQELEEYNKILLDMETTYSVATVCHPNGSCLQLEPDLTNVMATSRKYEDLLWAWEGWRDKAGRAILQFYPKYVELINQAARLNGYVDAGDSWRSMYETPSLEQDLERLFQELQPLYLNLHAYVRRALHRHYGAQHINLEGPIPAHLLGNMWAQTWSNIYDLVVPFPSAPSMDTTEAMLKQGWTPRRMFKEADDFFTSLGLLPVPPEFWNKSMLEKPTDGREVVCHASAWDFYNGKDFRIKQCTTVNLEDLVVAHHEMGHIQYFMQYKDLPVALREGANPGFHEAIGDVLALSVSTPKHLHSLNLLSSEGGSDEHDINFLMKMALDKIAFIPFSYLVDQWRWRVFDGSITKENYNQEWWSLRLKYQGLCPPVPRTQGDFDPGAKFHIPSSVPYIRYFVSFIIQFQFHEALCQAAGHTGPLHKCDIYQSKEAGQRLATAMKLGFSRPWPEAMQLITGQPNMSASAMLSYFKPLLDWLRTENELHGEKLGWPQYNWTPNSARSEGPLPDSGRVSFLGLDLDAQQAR
In data set [4] the test system is L-NAME-treated male Wistar rats. The experiment in a line: Serum nitrite/nitrate in L-NAME-treated rats. The class given is in vivo, rat. The note with it: mean ± standard error; 3 weeks oral gavage; lisinopril 10 mg/kg, peptide 30 mg/kg BW/day. The protocol:
as §1
(§2) The levels of nitrite and nitrate, which are metabolites of nitric oxide (NO), were measured using 50 µl of rat serum utilizing the calorimetric method (Nitrite/nitrate Kit, Sigma-Aldrich, 2 Science Park Dr, SG), according to company protocol. Angiotensin II peptide levels were quantified by using EIA kits (Angiotensin II EIA, Sigma-Aldrich, MO, USA), as per the manufacturer’s instructions).

Data set [5] shares this test system. The experiment in a line: Serum angiotensin II peptide (EIA) in L-NAME-treated rats. It is filed as in vivo, rat. The note with it: median (interquartile range); 3 weeks oral gavage; lisinopril 10 mg/kg, peptides 30 mg/kg BW/day. The protocol:
After 1 week of acclimation, 25 male Wistar rats were separated randomly into two groups of control rat (NC; n = 5) with distilled water and L-NAME-treated rat (n = 20). At this step, distilled water was orally gavaged to NC rat at 1 mL/100 g BW. L-NAME at a final concentration of 40 mg/kg BW in 1 mL distilled water was orally gavage to induce hypertension in rat at a dose of 40 mg/kg BW for 3 weeks. Thereafter, L-NAME treated rats were randomly classified into the following four groups: L-NAME untreated rat (HT; n = 5); L-NAME + lisinopril rat (HTD; n = 5); L-NAME + peptide 1 at 30 mg/kg rat (HTP1; n = 5); and L-NAME + peptide 2 at 30 mg/kg rat (HTP2; n = 5); for the remaining 3 weeks. NC (n = 5) was still orally gavaged with distilled water. The peptides were diluted in distilled water to obtain a final concentration of 30 mg/1 mL and immediately gavaged to rat at a dose of 30 mg/kg BW/day). […]
as §2

Data set [6] shares this test system. The data set is described as follows: Body weight of L-NAME-treated rats. The class given is in vivo, rat. The conditions noted are these: vs L-NAME-treated rats; 3 weeks treatment. The protocol: as §1
Data set [7] has the same test system. The experiment in a line: Platelet count and white blood cell levels of L-NAME-treated rats. The class given is in vivo, rat. The conditions noted are these: effect of treatment in the L-NAME treated group; 3 weeks. The protocol: as §1

T1 sequence (P12821 30-1306, species assumed): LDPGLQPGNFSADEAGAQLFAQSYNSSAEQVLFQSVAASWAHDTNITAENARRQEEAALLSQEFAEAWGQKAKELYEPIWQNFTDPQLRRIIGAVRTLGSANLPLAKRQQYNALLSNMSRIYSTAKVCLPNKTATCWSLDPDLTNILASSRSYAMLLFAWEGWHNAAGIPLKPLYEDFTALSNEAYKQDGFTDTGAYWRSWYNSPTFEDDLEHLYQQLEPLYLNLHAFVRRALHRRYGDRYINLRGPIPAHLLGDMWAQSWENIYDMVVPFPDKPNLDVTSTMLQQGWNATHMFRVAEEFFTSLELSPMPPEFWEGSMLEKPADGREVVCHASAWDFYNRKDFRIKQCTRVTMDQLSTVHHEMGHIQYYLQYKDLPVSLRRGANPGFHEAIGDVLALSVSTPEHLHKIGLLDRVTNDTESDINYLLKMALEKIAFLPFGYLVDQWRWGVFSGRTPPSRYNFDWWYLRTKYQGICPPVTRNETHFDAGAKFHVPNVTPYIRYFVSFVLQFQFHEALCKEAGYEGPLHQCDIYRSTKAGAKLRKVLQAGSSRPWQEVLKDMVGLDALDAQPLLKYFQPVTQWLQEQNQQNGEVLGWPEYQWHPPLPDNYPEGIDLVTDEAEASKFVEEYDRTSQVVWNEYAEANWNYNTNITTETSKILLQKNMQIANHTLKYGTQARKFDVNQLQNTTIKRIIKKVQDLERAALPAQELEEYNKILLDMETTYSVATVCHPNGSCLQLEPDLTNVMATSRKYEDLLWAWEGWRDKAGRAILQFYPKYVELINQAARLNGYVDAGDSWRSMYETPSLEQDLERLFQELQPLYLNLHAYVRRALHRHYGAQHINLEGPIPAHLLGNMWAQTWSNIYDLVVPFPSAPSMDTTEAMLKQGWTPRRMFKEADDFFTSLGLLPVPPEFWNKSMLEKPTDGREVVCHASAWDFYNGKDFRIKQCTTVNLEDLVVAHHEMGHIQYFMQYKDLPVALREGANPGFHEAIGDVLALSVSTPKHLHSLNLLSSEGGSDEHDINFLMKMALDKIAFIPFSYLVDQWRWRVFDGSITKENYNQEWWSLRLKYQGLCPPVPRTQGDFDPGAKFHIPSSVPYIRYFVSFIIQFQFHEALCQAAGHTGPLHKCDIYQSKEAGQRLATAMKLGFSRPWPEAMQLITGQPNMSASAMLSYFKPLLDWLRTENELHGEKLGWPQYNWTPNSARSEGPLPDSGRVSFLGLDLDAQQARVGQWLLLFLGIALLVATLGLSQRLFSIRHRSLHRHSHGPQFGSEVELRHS

Regarding DSVSASP [Asp-Ser-Val-Ser-Ala-Ser-Pro], at ACE, the IC50 amounted to 117 µM. In data set [1] (serum), the ALP was 159.00 U/L, the ALT amounted to 38.50 U/L, the AST amounted to 74.00 U/L and the BUN was determined as 20.33 mg/dL. In data set [2], the “weight of the livers” value is given as “significantly lower”.

Regarding “HCGDGDAPY [His-Cys-Gly-Asp-Gly-Asp-Ala-Pro-Tyr]”, the IC50 on ACE turned out to be 103 µM.

On to HVLSA [His-Val-Leu-Ser-Ala], for which the IC50 on ACE is 10 µM.

On to “PTTKTNVPPHF [Pro-Thr-Thr-Lys-Thr-Asn-Val-Pro-Pro-His-Phe]”, for which, on ACE, the IC50 was 119 µM.

Turning to `N[C@@H](Cc1ccc(O)cc1)C(=O)N[C@@H](CO)C(=O)N[C@@H](Cc1ccccc1)C(=O)O` [Tyr-Ser-Phe] (H-Tyr-Ser-Phe-OH; N-terminus and C-terminus assumed), the IC50 on ACE is 44.2 µM.

Take “LDSKHEAP [Leu-Asp-Ser-Lys-His-Glu-Ala-Pro]”: on ACE, the IC50 was determined as 121 µM.

Turning to “EGSGKGVR [Glu-Gly-Ser-Gly-Lys-Gly-Val-Arg]”, on ACE, the half-inhibitory concentration (IC50) stood at 87.2 µM.

Consider DLSSAP [Asp-Leu-Ser-Ser-Ala-Pro], for which the IC50 at ACE turned out to be 4.75 µM. In data set [1] (serum), this molecule registered an ALP of 135.00 U/L, an ALT of 31.50 U/L, an AST of 67.00 U/L and a BUN of 19.70 mg/dL. Also, the “weight of the livers” value in data set [2] is listed as “significantly lower”.

For Tyr-Ser-Phe (peptide), the IC50 (µM) ACE inhibition (ACE inhibitory activity assay kit, absorbance at 450 nM) in data set [3] stood at 44.2 µM.

In turn, `NCCCC[C@H](N[C@@H](CCc1ccccc1)C(=O)O)C(=O)N1CCC[C@H]1C(=O)O` [Lisinopril] had an ORAC in data set [1] (rat serum) of 0.19 µmol TE/dl. In data set [1] (serum ratio), the Cho/HDL turned out to be 2.69 and the LDL/HDL is listed as 0.22. In data set [1] (serum), the ALP amounted to 129.75 U/L, the ALT worked out at 41.50 U/L, the AST stood at 67.75 U/L and the BUN was 19.83 mg/dL. In data set [1] (serum), this molecule returned a Chol of 86.25 mg/dL, a Glucose of 263.00 mg/dL, an HDL of 32.00 mg/dL and an LDL of 7.00 mg/dL. In data set [1] (serum), this molecule returned a Tri of 179.25 mg/dL and a VLDL of 35.75 mg/dL. For the same molecule, in data set [4], the “serum concentration of nitrate” value came out at 15.05 ± 1.95 ng/µL; the “serum concentration of nitrite” value came out at 16.17 ± 2.99 ng/µL; the “serum concentration of total nitrate and nitrite (NOx)” value was determined as 31.22 ± 4.94 ng/µL. Further, the “serum concentration of AGE II” value in data set [5] was 5.19 (4.82) pg/mL. Further, the “effect on rat BWs” value in data set [6] is on record as “not significantly affected”. Also, in data set [2], the “weight of the livers” value was “significantly lower”. For the same molecule, the “platelet count and white blood cell levels” value in data set [7] is “did not affect”.

Molecule DSVSASP [Asp-Ser-Val-Ser-Ala-Ser-Pro] displayed an IC50 (µM) ACE inhibition (ACE inhibitory activity assay kit, absorbance at 450 nM) in data set [3] of 117 µM.

DLSSAP [Asp-Leu-Ser-Ser-Ala-Pro] showed an IC50 (µM) ACE inhibition (ACE inhibitory activity assay kit, absorbance at 450 nM) in data set [3] of 4.75 µM.

For the molecule HCGDGDAPY [His-Cys-Gly-Asp-Gly-Asp-Ala-Pro-Tyr], the IC50 (µM) ACE inhibition (ACE inhibitory activity assay kit, absorbance at 450 nM) in data set [3] came out at 103 µM.

The molecule LDSKHEAP [Leu-Asp-Ser-Lys-His-Glu-Ala-Pro] had an IC50 (µM) ACE inhibition (ACE inhibitory activity assay kit, absorbance at 450 nM) in data set [3] of 121 µM.

In the case of PTTKTNVPPHF [Pro-Thr-Thr-Lys-Thr-Asn-Val-Pro-Pro-His-Phe], the IC50 (µM) ACE inhibition (ACE inhibitory activity assay kit, absorbance at 450 nM) in data set [3] amounted to 119 µM.

HVLSA [His-Val-Leu-Ser-Ala] yielded an IC50 (µM) ACE inhibition (ACE inhibitory activity assay kit, absorbance at 450 nM) in data set [3] of 10 µM.

In the case of EGSGKGVR [Glu-Gly-Ser-Gly-Lys-Gly-Val-Arg], the IC50 (µM) ACE inhibition (ACE inhibitory activity assay kit, absorbance at 450 nM) in data set [3] was 87.2 µM.

One may read the IC50 as the concentration at which inhibition is half-maximal.
